# Laboratory results: publication PMC7321065, “Discovery of New Schiff Bases Tethered Pyrazole Moiety: Design, Synthesis, Biological Evaluation, and Molecular Docking Study as Dual Targeting DHFR/DNA Gyrase Inhibitors with Immunomodulatory Activity” (Molecules, 2020)
# Like-named read-outs stand apart in the source and are kept apart here.
# Tests used:
# [1] = tested on: hepatocellular carcinoma cell line (HepG2); assay: Antiproliferative activity, MTT assay; assay type: cell-based, human; details: Homo sapiens, HepG2; MTT, 48 h; read-out: IC50 HepG-2
# Description: (§1) 3-[4, 5-Dimethyl-2-thiazolyl)-2, 5-diphenyl-2 H-tetrazolium bromide (MTT) protocol is based on the cleavage of the tetrazolium salt by mitochondrial dehydrogenases in viable cells. Cells were dispensed in a 96 well sterile microplate (5 x 10^4 cells/well), and incubated at 37 °C with series of different concentrations, in DMSO, of each tested compound or Doxorubicin ® (positive control) for 48 h in a serum free medium prior to the MTT assay. After incubation, media were carefully removed, 40 µL of MTT (2.5 mg/mL) were added to each well and then incubated for an additional 4 h. The purple formazan dye crystals were solubilized by the addition of 200 µL of DMSO. The absorbance was measured at 590 nm using a SpectraMax® Paradigm® Multi-Mode microplate reader. The relative cell viability was expressed as the mean percentage of viable cells compared to the untreated control cells.
# (§2) All experiments were conducted in triplicate and repeated in three different days. All the values were represented as mean ± SD. IC 50s were determined by probit analysis using SPSS software program (SPSS
# [2] = tested on: mammary gland breast cancer cell line (MCF-7); assay: Antiproliferative activity, MTT assay; assay type: cell-based, human; details: Homo sapiens, MCF7; MTT, 48 h; read-out: IC50 MCF-7
# Description: as §1, §2
# Staphylococcus aureus [3] = assay: MIC/MBC, paper disk diffusion; assay type: cell-based; details: Staphylococcus aureus, S. aureus
# Description: (§3) Antimicrobial activities of the newly formed Schiff bases (6a–d, 7a–d, 8a–d, and 9a–d) and reference drugs were evaluated against three Gram-positive, three Gram-negative, and two fungi strain at Al-Azhar University, Cairo, Egypt. The inhibition zones (IZ, in mm ± standard deviation) and the minimal inhibitory concentration (MIC) (μg/mL) were determined by the conventional paper disk diffusion method.
# (§4) In Vitro Antimicrobial Activities […]
# (§5) DMSO was used for dissolving […]
# (§6) the tested microorganisms.
# (§7) The minimum inhibitory concentration (MIC), the minimum bactericidal concentration (MBC, µg/ml) and […]
# (§8) and 9b) were determined by the conventional technique termed paper disk diffusion, by applying paper […]
# (§9) Bacteria were grown on nutrient agar medium, while fungi and yeast were grown on Sabouraud agar medium. The purified streptomycin was dissolved in […]
# (§10) inoculated with test organism. Growth inhibition was examined after 24 hr. from incubation at 37 °C for bacteria and after 72 hr. incubation at 27 °C for fungi and yeast. Each test was repeated three times. MIC was expressed as the lowest concentration inhibiting test organism’s growth. […]
# Salmonella typhi [4] = assay: MIC/MBC, paper disk diffusion; assay type: cell-based; details: Salmonella enterica, TYPHI
# Description: as §3, §4, §5, §6, §7, §8, §9, §10
# Pseudomonas aeruginosa [5] = assay: MIC/MBC, paper disk diffusion; assay type: cell-based; details: Pseudomonas aeruginosa, P. aeruginosa
# Description: as §3, §4, §5, §6, §7, §8, §9, §10
# Bacillus subtilis [6] = assay: MIC/MBC, paper disk diffusion; assay type: cell-based; details: Bacillus subtilis, B. subtilis; read-out: MBC
# Description: as §3, §4, §5, §6, §7, §8, §9, §10
# Enterococcus faecalis [7] = assay: MIC/MBC, paper disk diffusion; assay type: cell-based; details: E. faecalis
# Description: as §3, §4, §5, §6, §7, §8, §9, §10
# Escherichia coli [8] = assay: MIC/MBC, paper disk diffusion; assay type: cell-based; details: Escherichia coli, E. coli
# Description: as §3, §4, §5, §6, §7, §8, §9, §10
# Pseudomonas aeruginosa [9] = assay: Inhibition zone, agar plate diffusion; assay type: cell-based; details: read-out: Inhibition zone (IZ)
# Description: as §3
# (§11) In Vitro Antimicrobial Activities
# (§12) The antimicrobial activities inhibition zone (IZ, mm±standard deviation) of pyrazole Schiff bases ( 6a-d , 7a-d, 8a-d and 9a-d ) was measurement according to the agar plate diffusion method. Briefly, 100 µl of the […]
# (§13) […] of each sample (at 0.5 mg/mL) was added to each well (10 mm diameter holes cut in the agar gel). The plates were incubated for 24 h at 37 °C (for bacteria and yeast) and for 72 h at 27 °C (for filamentous fungi), each test was repeated three times. After incubation, the microorganism's growth was observed. […]
# (§14) drugs while Amphotericin B was used as standard antifungal drug. The resulting inhibition zone diameters were measured in millimeters and used as criterion for the antimicrobial activity. Solvent controls (DMSO) were included in every experiment as negative controls. DMSO was used for dissolving […]
# (§15) the tested microorganisms. […]
# Bacillus subtilis [10] = assay: Inhibition zone, agar plate diffusion; assay type: cell-based; details: read-out: Inhibition zone (IZ)
# Description: as §3, §11, §12, §13, §14, §15
# Enterococcus faecalis [11] = assay: Inhibition zone, agar plate diffusion; assay type: cell-based; details: read-out: Inhibition zone (IZ)
# Description: as §3, §11, §12, §13, §14, §15
# Escherichia coli [12] = assay: Inhibition zone, agar plate diffusion; assay type: cell-based; details: read-out: Inhibition zone (IZ)
# Description: as §3, §11, §12, §13, §14, §15
# Staphylococcus aureus [13] = assay: Inhibition zone, agar plate diffusion; assay type: cell-based; details: read-out: Inhibition zone (IZ)
# Description: as §3, §11, §12, §13, §14, §15
# (§16) Bacteria were grown on nutrient agar medium, while fungi and yeast were grown on Sabouraud agar medium. […]
# Fusarium oxysporum [14] = assay: Inhibition zone, agar plate diffusion; assay type: cell-based; details: read-out: Inhibition zone (IZ)
# Description: as §3, §11, §12, §13, §14, §15, §16
# Salmonella typhi [15] = assay: Inhibition zone, agar plate diffusion; assay type: cell-based; details: Salmonella enterica, read-out: Inhibition zone (IZ)
# Description: as §3, §11, §12, §13, §14, §15, §16
# Candida albicans [16] = assay: Inhibition zone, agar plate diffusion; assay type: cell-based; details: read-out: Inhibition zone (IZ)
# Description: as §3, §11, §12, §13, §14, §15, §16
# Fusarium oxysporum [17] = assay: MIC/MFC, paper disk diffusion; assay type: cell-based; details: Fusarium oxysporum, F. oxysporum
# Description: as §3, §4, §5, §6, §7, §8, §9, §10
# Candida albicans [18] = assay: MIC/MFC, paper disk diffusion; assay type: cell-based; details: Candida albicans, C. albicans
# Description: as §3, §4, §5, §6, §7, §8, §9, §10
# [19] = Pa, mm ± standard deviation, sample at 0.5 mg/mL
# [20] = Bs, mm ± standard deviation, sample at 0.5 mg/mL
# [21] = Ef, mm ± standard deviation, sample at 0.5 mg/mL
# [22] = Ec, mm ± standard deviation, sample at 0.5 mg/mL
# [23] = Sa, mm ± standard deviation, sample at 0.5 mg/mL
# [24] = Fo, mm ± standard deviation, sample at 0.5 mg/mL
# [25] = Ca, mm ± standard deviation, sample at 0.5 mg/mL
# [26] = St, mm ± standard deviation, sample at 0.5 mg/mL
structure (smiles),measurement,setting,value
"COc1cccc2c1C(=O)c1c(O)c3c(c(O)c1C2=O)C[C@@](O)(C(=O)CO)C[C@@H]3O[C@H]1C[C@H](N)[C@H](O)[C@H](C)O1 [Doxorubicin, reference compound]",IC50,[1],3920 ± 500 nM
same,IC50,[2],1940 ± 800 nM
"CN(C)[C@@H]1C(O)=C(C(N)=O)C(=O)[C@@]2(O)C(O)=C3C(=O)c4c(O)cccc4[C@@](C)(O)[C@H]3C[C@@H]12 [Tetracycline, reference compound]",MBC,Staphylococcus aureus [3]; read-out: MBC,87.5 µg/mL
same,MIC,Staphylococcus aureus [3]; read-out: MIC,62.5 µg/mL
same,MBC,Salmonella typhi [4],43.8 µg/mL
same,MBC,Pseudomonas aeruginosa [5]; read-out: MBC,87.5 µg/mL
same,MIC,Pseudomonas aeruginosa [5]; read-out: MIC,62.5 µg/mL
same,MBC,Bacillus subtilis [6],40.6 µg/mL
same,MBC,Enterococcus faecalis [7]; read-out: MBC,93.8 µg/mL
same,MIC,Enterococcus faecalis [7]; read-out: MIC,62.5 µg/mL
same,MBC,Escherichia coli [8]; read-out: MBC,18.7 µg/mL
same,MIC,Escherichia coli [8]; read-out: MIC,15.6 µg/mL
same,zone of inhibition at 500 µg/mL,Pseudomonas aeruginosa [9]; [19],20 ± 0.5 mm
same,zone of inhibition at 500 µg/mL,Bacillus subtilis [10]; [20],25 ± 0.22 mm
same,zone of inhibition at 500 µg/mL,Enterococcus faecalis [11]; [21],22 ± 0.25 mm
same,zone of inhibition at 500 µg/mL,Escherichia coli [12]; [22],23 ± 0.2 mm
same,zone of inhibition at 500 µg/mL,Staphylococcus aureus [13]; [23],25 ± 0.11 mm
same,zone of inhibition at 500 µg/mL,Fusarium oxysporum [14]; [24],< 8 mm
same,zone of inhibition at 500 µg/mL,Salmonella typhi [15],21 ± 0.55 mm
same,zone of inhibition at 500 µg/mL,Candida albicans [16]; [25],< 8 mm
"C[C@@H]1[C@H](O)[C@@H](C)/C=C/C=C/C=C/C=C/C=C/C=C/C=C/[C@H](O[C@@H]2O[C@H](C)[C@@H](O)[C@H](N)[C@@H]2O)C[C@@H]2O[C@](O)(C[C@@H](O)C[C@@H](O)[C@H](O)CC[C@@H](O)C[C@@H](O)CC(=O)O[C@H]1C)C[C@H](O)[C@H]2C(=O)O [Amphotericin B, reference compound]",zone of inhibition at 500 µg/mL,Pseudomonas aeruginosa [9]; [19],< 8 mm
same,zone of inhibition at 500 µg/mL,Bacillus subtilis [10]; [20],< 8 mm
same,zone of inhibition at 500 µg/mL,Enterococcus faecalis [11]; [21],< 8 mm
same,zone of inhibition at 500 µg/mL,Escherichia coli [12]; [22],< 8 mm
same,MFC,Fusarium oxysporum [17]; read-out: MFC,65.6 µg/mL
same,MIC,Fusarium oxysporum [17]; read-out: MIC,31.2 µg/mL
same,MFC,Candida albicans [18]; read-out: MFC,34.6 µg/mL
same,MIC,Candida albicans [18]; read-out: MIC,15.6 µg/mL
same,zone of inhibition at 500 µg/mL,Staphylococcus aureus [13]; [23],< 8 mm
same,zone of inhibition at 500 µg/mL,Fusarium oxysporum [14]; [24],18 ± 0.32 mm
same,zone of inhibition at 500 µg/mL,Salmonella typhi [15]; [26],< 8 mm
same,zone of inhibition at 500 µg/mL,Candida albicans [16]; [25],22 ± 0.2 mm
"COc1ccc(Nc2n[nH]c(N=Cc3c(C)n(C)n(-c4ccccc4)c3=O)c2C(=O)Nc2ccc(C)cc2)cc1 [6c, 5-((1,5-Dimethyl-3-oxo-2-phenyl-2,3-dihydro-1H-pyrazol-4-yl)methyleneamino)-3-(p-methoxyphenylamino)-N-p-tolyl-1H-pyrazole-4-carboxamide]",zone of inhibition at 500 µg/mL,Pseudomonas aeruginosa [9],< 8 mm
same,zone of inhibition at 500 µg/mL,Bacillus subtilis [10],20 ± 0.11 mm
same,zone of inhibition at 500 µg/mL,Enterococcus faecalis [11],21 ± 0.54 mm
same,zone of inhibition at 500 µg/mL,Escherichia coli [12],22 ± 0.43 mm
same,zone of inhibition at 500 µg/mL,Staphylococcus aureus [13],23 ± 0.29 mm
same,zone of inhibition at 500 µg/mL,Fusarium oxysporum [14],9 ± 0.35 mm
same,zone of inhibition at 500 µg/mL,Salmonella typhi [15]; [26],15 ± 0.36 mm
same,zone of inhibition at 500 µg/mL,Candida albicans [16],17 ± 0.21 mm
